{"source": "patent US10028992B2", "about": "“Methods of treating muscular dystrophy” (BOARD OF REGENTS OF THE NEVADA SYSTEM OF HIGHER EDUCATION …, priority 2012, dated 2018)", "key": {"α7 integrin": {"system": "α7 integrin", "test": "western analysis of α7 integrin in C2C12 myoblasts/myotubes", "assay_type": "cell-based, mouse", "details": "C2C12 myotubes", "procedure": "FIGS. 13A-13D illustrate western blot studies in which protein extracts from C2C12 (A, B) and DMD (C, D) myoblasts were first treated with PBS or 100 nM LAM-111 and then subjected to western analysis of the α7B integrin and the Cox-1 loading standard. *=p<0.05.\nBands were quantified using Image J software and then graphed as α7 Integrin protein levels relative to GAPDH protein levels. * denotes a significant difference in relative protein levels with **p<0.01.\nThe ability of laminin to regulate α7 integrin expression, α7βgal^+/− myoblasts were exposed to 0-200 nM laminin-111 for 24 hours. The activity of the α7 integrin promoter was measured by β-galactosidase cleavage of the non-fluorescent compound fluorescein di-β-D-galactopyranoside (FDG) to fluorescein. […] The ability of laminin-111 to increase α7 integrin expression was confirmed by western analysis using mouse and human DMD muscle cells (FIGS. 2A-2D).\nIt is contemplated that the identified parent scaffolds (Tables 8 and 9) increase α7 integrin expression through a similar mechanism."}, "Mdx/utr−/− mice": {"system": "Mdx/utr−/− mice", "test": "treatment of mdx/utr−/− mice", "details": "mouse, in vivo"}, "α7 integrin promoter": {"system": "α7 integrin promoter", "test": "muscle cell-based assay: α7βgal+/− myoblasts/myotubes, LacZ reporter, β-galactosidase cleavage of FDG", "parameters": "species or system mouse", "details": "enhancement of α7 integrin expression in muscle cells", "in_short": "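Fluorescein generated from FDG by β-galactosidase reports α7 integrin promoter activity in differentiated myoblasts from α7+/− LacZ knock-in pups. Screening hits then went to dose-response, western blotting and a myostatin counterscreen.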"}}, "data": [{"smiles": "CCCC(CCC)C(=O)O", "note": "[Valproic acid, valproic acid]", "values": [{"measurement": "α7 integrin protein", "setting": "α7 integrin", "value": "increased"}, {"measurement": "Akt signaling pathway in muscle", "setting": "Mdx/utr−/− mice", "value": "activation"}, {"measurement": "fibrosis", "setting": "Mdx/utr−/− mice", "value": "reduced fibrosis"}, {"measurement": "mobility", "setting": "Mdx/utr−/− mice", "value": "improved mobility"}, {"measurement": "muscle disease", "setting": "Mdx/utr−/− mice; listed as Valproic Acid", "value": "reduced muscle disease"}, {"measurement": "muscle disease", "setting": "Mdx/utr−/− mice; listed as valproic acid", "value": "reduced overall muscle disease"}, {"measurement": "EC50", "setting": "α7 integrin promoter; Mus musculus, read-out: EC50", "value": 500, "unit": "µM"}, {"measurement": "Optimal Concentration", "setting": "α7 integrin promoter", "value": 2, "unit": "mM"}]}]}
